Our source for the drug sensitivity score values is the supplement of paper PMC9265050, “Inhibition of RNA Binding in SND1 Increases the Levels of miR-1-3p and Sensitizes Cancer Cells to Navitoclax” (Cancers, 2022).

This test concerns SW480. Description: drug sensitivity score (DSS, integrated dose-response area); higher = more sensitive (stronger viability reduction); extreme values may be limits of the assay. The method, boiled down:
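Viability of induced SW480 cells carrying control or SND1-targeting shRNA was read by CellTiter-Glo 72 h after plating at 1000 cells per well onto 384-well plates holding 525 small-molecule inhibitors at five concentrations. Induction used 0.1 µg/mL doxycycline for 7 days. Each drug sensitivity score integrates the area under a fitted non-linear dose–response model.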

The mark [1] stands for this setting: shRNA: SND1 shRNA1 (SND1 silenced).
The mark [2] stands for this setting: shRNA: SND1 shRNA2 (SND1 silenced).
Setting [3] is: shRNA: control shRNA (non-targeting).

For `NC1(c2ccc(-c3nc4ccn5c(=O)[nH]nc5c4cc3-c3ccccc3)cc2)CCC1` [MK-2206], the drug sensitivity score reads like this: under setting [1], 3.5 DSS; under setting [2], 4.4 DSS; under setting [3], 3.6 DSS.
Take `c1cc(CN2CCCNCCNCCCNCC2)ccc1CN1CCCNCCNCCCNCC1` [Plerixafor]: the drug sensitivity score under setting [1] was 0 DSS and the drug sensitivity score under setting [3] is 0 DSS.
`CC[C@]1(O)C[C@H]2CN(CCc3c([nH]c4ccccc34)[C@@](C(=O)OC)(c3cc4c(cc3OC)N(C=O)[C@H]3[C@@](O)(C(=O)OC)[C@H](OC(C)=O)[C@]5(CC)C=CCN6CC[C@]43[C@@H]65)C2)C1` [Vincristine]: the drug sensitivity score under setting [1] was found to be 10.1 DSS, the drug sensitivity score under setting [2] worked out at 9.7 DSS and the drug sensitivity score under setting [3] was found to be 16.6 DSS.
Turning to `C[C@@H](Oc1cc(-n2cnc3ccc(CN4CCN(C)CC4)cc32)sc1C(N)=O)c1ccccc1C(F)(F)F`, the drug sensitivity score was determined as 25.1 DSS under setting [1] and 23.6 DSS under setting [3].
For the compound `Cc1cc(Nc2nc(N[C@@H](C)c3ncc(F)cn3)ncc2Cl)[nH]n1` [AZD1480], the drug sensitivity score amounted to 0.6 DSS under setting [1], 0 DSS under setting [2] and 1.1 DSS under setting [3].
The compound `CC(=O)[C@]1(O)Cc2c(O)c3c(c(O)c2[C@@H](O[C@H]2C[C@H](N)[C@H](O)[C@H](C)O2)C1)C(=O)c1ccccc1C3=O` [Idarubicin] had a drug sensitivity score under setting [1] of 11.6 DSS, a drug sensitivity score under setting [2] of 9 DSS and a drug sensitivity score under setting [3] of 9.4 DSS.
The matching figures for `Cc1ccc(C(=O)Nc2ccc(CN3CCN(C)CC3)c(C(F)(F)F)c2)cc1C#Cc1cnc2cccnn12` [Ponatinib]: 5.9 DSS, 4.8 DSS and 4.4 DSS.
In the case of `O=C(Nc1cccc(Nc2ncc(Br)c(NCCc3cnc[nH]3)n2)c1)N1CCCC1` [BX-912], the drug sensitivity score under setting [1] turned out to be 6.7 DSS, the drug sensitivity score under setting [2] came to 6.5 DSS and the drug sensitivity score under setting [3] turned out to be 8.5 DSS.
The matching figures for `CC(=O)Nc1cccc(-n2c(=O)n(C3CC3)c(=O)c3c(Nc4ccc(I)cc4F)n(C)c(=O)c(C)c32)c1` [Trametinib]: 19.3 DSS, 12.7 DSS and 8.1 DSS.
Regarding `O=C(Nc1cccc(NC(=O)c2cccc(O)c2O)c1)c1cccc(O)c1O` [MST-312], the drug sensitivity score was 7.6 DSS under setting [1], 5.2 DSS under setting [2] and 8.2 DSS under setting [3].
In the case of `O=C(O)c1ccc(O)c2ncccc12` [IOX-1], the drug sensitivity score runs as follows: under setting [1], 1.7 DSS; under setting [2], 1.1 DSS; under setting [3], 0.7 DSS.
In the same order, the values of `Cc1cc(Nc2cc(N3CCN(C)CC3)nc(/C=C/c3ccccc3)n2)n[nH]1` [ENMD-2076] are 11.9 DSS, 10.7 DSS and 12 DSS.
In the same order, the values of `Cc1cc(-c2ncc(-c3cccnc3)cc2/C=C/c2ccccc2)cnc1-c1cccnc1` [Pyridoclax] are 4.1 DSS, 2.7 DSS and 0.2 DSS.
On to `COc1ccc(C2=N[C@@H](c3ccc(Cl)cc3)[C@@H](c3ccc(Cl)cc3)N2C(=O)N2CCNC(=O)C2)c(OC(C)C)c1` [Nutlin-3], for which the drug sensitivity score came out at 0 DSS under setting [1], 0 DSS under setting [2] and 0.2 DSS under setting [3].
For `O=P1(N(CCCl)CCCl)NCCCO1` (stereo not drawn) [Cyclophosphamide], the drug sensitivity score is 0 DSS under setting [1], 0 DSS under setting [2] and 0 DSS under setting [3].
Turning to `O=C(CCBr)N1CCN(C(=O)CCBr)CC1` [Pipobroman], the drug sensitivity score amounted to 0.1 DSS under setting [1], 1.5 DSS under setting [2] and 0.1 DSS under setting [3].
Turning to `CC[C@H](CC#N)OC(=O)N[C@@H](C)c1cccc(NC(=O)Nc2ccc(-c3cnco3)c(OC)c2)c1` [AVN944], the drug sensitivity score came to 13.4 DSS under setting [1] and 12.3 DSS under setting [3].
